Source: publication PMC9184620, “TAS1553, a small molecule subunit interaction inhibitor of ribonucleotide reductase, exhibits antitumor activity by causing DNA replication stress” (Communications Biology, 2022)

How the values were obtained:
MV-4-11 xenograft = assay: Antitumor activity in rats bearing MV-4-11 xenografts; type: in vivo
Description: (§1) Next, we evaluated the antitumor activity of a high-dose administration of TAS1553 and cytarabine in rats bearing MV-4-11 xenografts. […] The rats were treated with cytarabine for 5 days at 16 and 32 mg/kg. […] In addition to the hematologic tumor, we evaluated the antitumor activity of TAS1553 in mice implanted with HCC38 cell line as a solid tumor model. […] Finally, TAS1553 was evaluated for its survival benefit in a mouse model. To achieve this, we established mice bone marrow cells harboring the human MLL-AF9 fusion gene, which is known as a driver gene for AML in humans as well as mice[48].
For the subcutaneous implantation model of MV-4-11, F344/NJcl-rnu/rnu rats were irradiated with X-ray (4 Gy) to improve the efficiency of xenograft implantation. Two days after X-ray irradiation, MV-4-11 cells suspended in PBS with 50 vol% Matrigel were inoculated into the rats (2 × 10^7 cells/animal). In the mice subcutaneous implantation model, HCC38 cells suspended same as above were inoculated into male BALB/cAJcl-nu/nu mice (1 × 10^7 cells /body). […] Antitumor activity and body weight change were evaluated as previously reported. Dunnett test using the SAS software package in EXSUS (CAC Croit) was used to compare the tumor volume (P < 0.05).

HCC38 cells = assay: Cell proliferation assay (CellTiter-Glo), HCC38; type: cell-based; details: Homo sapiens, 72 h; HCC38, 3 days exposure
Description: Next, we evaluated both concentration-dependent and time-dependent effects of TAS1553 on the dATP pool in HCC38 and MV-4-11 cell lines using absolute quantification. After 2 h of TAS1553 exposure, there was a concentration-dependent reduction of intracellular dATP pool in both cell lines (Fig. 2c). Furthermore, the intracellular dATP pool was reduced within 30 minutes when treated with TAS1553 at 1 or 10 µmol/L in both cell lines (Fig. 2d), consistent with its inhibitory effect on the protein-protein interaction (Fig. 2a).
Cell proliferation assay was performed as reported previously. Briefly, cells were plated and incubated for 1 day, followed by 3 days of exposure to the compound. After compound exposure, viable cells were detected by using the CellTiter-Glo luminescent cell viability assay (Promega). GI50 values were calculated using the SAS software package. The experiment was performed in triplicates.

HCC38 xenograft = assay: Antitumor activity in mice bearing HCC38 xenografts; type: in vivo, mouse; details: 100 mg/kg oral once daily for 14 days
Description: as §1, with “mice[48]. Mice were transplanted with the cells through the tail vein and the treatment with TAS1553 was started 11 days post-implantation.” for “mice[48].”
For the subcutaneous implantation model of MV-4-11, F344/NJcl-rnu/rnu rats were irradiated with X-ray (4 Gy) to improve the efficiency of xenograft implantation. Two days after X-ray irradiation, MV-4-11 cells suspended in PBS with 50 vol% Matrigel were inoculated into the rats (2 × 10^7 cells/animal). In the mice subcutaneous implantation model, HCC38 cells suspended same as above were inoculated into male BALB/cAJcl-nu/nu mice (1 × 10^7 cells /body). The animals were randomized and administered with the compound for 14 days. Antitumor activity and body weight change were evaluated as previously reported. Dunnett test using the SAS software package in EXSUS (CAC Croit) was used to compare the tumor volume (P < 0.05).

MV-4-11 xenograft tumors = assay: Intratumoral dATP and ATP pool in MV-4-11 xenograft tumors after single oral dose; type: in vivo, rat; details: 1 and 2 h post-administration, 50 mg/kg and 200 mg/kg single oral dose
Description: To determine whether TAS1553 achieved RNR inhibition in an in vivo model, we examined the effect of a single dose of orally administered TAS1553 on intratumoral dATP pool, DNA replication stress, and apoptosis in rats that were subcutaneously implanted with a xenograft of MV-4-11 cell line. […] The decline in the intratumoral dATP pool recovered 4 h after the administration of both doses. We also evaluated the DNA replication stress and apoptosis induction in tumors following TAS1553 administration. Consistent with the modulation of the dATP pool, the single administration of TAS1553 (50 mg/kg or more) caused the phosphorylation of Chk1 at Ser345 1 and 2 h post-administration. Furthermore, TAS1553 administration also led to induction in cleaved PARP and cleaved caspase-3 levels, following to Chk1 phosphorylation (Fig. 4d).
Cells were plated, cultured for 1 day, treated with the compound, and harvested. The collected cells were homogenized with 0.42 mol/L perchloric acid, including IS-dATP at 0.6 μmol/L and IS-ATP at 2.4 μmol/L as internal standards for dATP and ATP, respectively. At each time point, xenograft tumors were excised after single dosing of the test compound. The tissues were homogenized with 0.42 mol/L perchloric acid, including IS-dATP at 3 μmol/L as an internal standard for dATP and ATP. […] The aqueous layer collected after vortex and centrifugation was analyzed by LC-MS/MS. […]

[1] = 400 mg/kg oral once daily for 14 days

Cc1ccc(F)c([C@@H](C)[C@H](NS(=O)(=O)c2ccc(Cl)cc2C(N)=O)c2n[nH]c(=O)o2)c1C [TAS1553, 5-chloro-2-{N-[(1S,2R)-2-(6-fluoro-2,3-dimethylphenyl)-1-(5-oxo-4,5-dihydro-1,3,4-oxadiazol-2-yl)propyl]sulfamoyl}benzamide]
T/C (mean tumor volume treated/control) on Day 15 (MV-4-11 xenograft; 50 mg/kg oral once daily for 14 days): 52.0%
T/C (mean tumor volume treated/control) on Day 15 (MV-4-11 xenograft; 100 mg/kg oral once daily for 14 days): 45.0%
T/C (mean tumor volume treated/control) on Day 15 (MV-4-11 xenograft; 200 mg/kg oral once daily for 14 days): 29.4%
body weight change (MV-4-11 xenograft; [1]): without a reduction in body weight
tumor growth outcome (MV-4-11 xenograft; [1]): tumor disappearance in all the treated animals
body weight change (MV-4-11 xenograft; 50, 100, 200 mg/kg oral once daily for 14 days): none of the groups showed any dramatic weight loss
GI50 (HCC38 cells): 352 nM
T/C ratio (HCC38 xenograft): 40.4%
effect on intratumoral dATP pool (MV-4-11 xenograft tumors): significant reduction
